pEC50, pIC50: −log10 of the molar value. Bounds are passed on as bounds.

Assay [1] addresses cellular kallikrein activity (Homo sapiens (Human), UniProt P03952). Put plainly: In vitro cellular assay (contact assay): kallikrein activity in ellagic acid-activated human plasma, Z-FR-2-AMC substrate. The assay is classed as biochemical. The settings on record: human plasma activated with ellagic acid, 37° C. Here is the method: The ability of the compounds disclosed herein to inhibit cellular kallikrein activity was quantified and the respective EC50 value was determined.
All dilutions were prepared in an assay buffer comprising 50 mM Tris-HCl pH 7.2, 150 mM NaCl, and 0.01% Triton X-100.
The ten solutions of the test compounds, prepared by serial dilution, were further diluted 50-fold in the assay buffer.
Human plasma is thawed on ice and centrifuged for 15 min at 4° C. to remove platelets. A 1 mM stock solution of ellagic acid is diluted to 8 μM and mixed with human plasma, after removing platelets, at a ratio of 1:0.8.
A 22.5 μL volume of the final mixture of human plasma and ellagic acid was added to a 96-well microwell plate and the plate was incubated for 15 min at 37° C.
The CINH inhibitor at various concentrations, prepared by serial dilutions as described above, were added to the inhibitor control wells. […] Each CINH concentration is tested in duplicates.
The test compounds at various concentrations, also prepared by serial dilutions as described above, are added to the test wells. […] Each test compound concentration was tested in duplicates.
In addition to the inhibitor control and test wells, the 96 well assay plate includes positive control wells which contained the mixture of human plasma and ellagic acid without C1NH inhibitor or test compounds, and background wells which contained neither the mixture of human plasma and ellagic acid nor the test compounds. The total volume of liquid in positive control and background wells was brought up to 35 μL, using the assay buffer.
The assay plate containing C1NH inhibitors and test compounds mixed with human plasma and ellagic acid and appropriate controls was incubated at 37° C. for 5 min. […] The reagents were mixed well by shaking the plate gently for 30 sec.
The enzyme reaction was quantified by immediate kinetic reading of the assay plate using excitation/emission wavelengths of 330 nm/440 nm respectively. Fluorescence intensity was recorded for 60 min, using a time interval of 43 sec.
The inhibition activity of the test compounds were evaluated using the EC50 values, calculated according to the dose-response curve of the test compounds, fitted using the “log(inhibitor)−response (variable slope)” equation in GraphPadPrism software (GraphPad Software, Inc.).
The percentage inhibition was calculated using the following equation:
[formula] where, Mean (BG) is the average value of the fluorescence intensity of the background wells and Mean (PC) is the average value of the fluorescence intensity of the positive control wells.
Table 4 provides the EC50 values of various compounds disclosed herein.

Assay [2] concerns the target human plasma kallikrein (Homo sapiens (Human), UniProt P03952). Kind of assay: In vitro enzyme inhibition of human plasma kallikrein (PFR-AMC cleavage). The format is biochemical. The settings on record: Pro-Phe-Arg-AMC substrate, 37° C., read-out: hPK IC50. Put shortly:
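Human plasma kallikrein and compound, diluted in 50 mM Tris-HCl pH 7.5, 150 mM NaCl, 0.01% Triton X-100, preincubated 5 min at 37 °C before PFR-AMC was added.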

Sequence of human plasma kallikrein (P03952 391-638): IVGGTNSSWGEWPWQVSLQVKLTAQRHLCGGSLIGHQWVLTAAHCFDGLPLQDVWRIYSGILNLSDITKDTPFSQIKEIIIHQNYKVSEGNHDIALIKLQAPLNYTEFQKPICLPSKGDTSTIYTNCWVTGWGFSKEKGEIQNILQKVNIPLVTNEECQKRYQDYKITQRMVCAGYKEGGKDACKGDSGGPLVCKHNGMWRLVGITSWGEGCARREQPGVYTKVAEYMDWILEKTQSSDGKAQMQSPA
Sequence of human plasma kallikrein (P03952 20-390 partner): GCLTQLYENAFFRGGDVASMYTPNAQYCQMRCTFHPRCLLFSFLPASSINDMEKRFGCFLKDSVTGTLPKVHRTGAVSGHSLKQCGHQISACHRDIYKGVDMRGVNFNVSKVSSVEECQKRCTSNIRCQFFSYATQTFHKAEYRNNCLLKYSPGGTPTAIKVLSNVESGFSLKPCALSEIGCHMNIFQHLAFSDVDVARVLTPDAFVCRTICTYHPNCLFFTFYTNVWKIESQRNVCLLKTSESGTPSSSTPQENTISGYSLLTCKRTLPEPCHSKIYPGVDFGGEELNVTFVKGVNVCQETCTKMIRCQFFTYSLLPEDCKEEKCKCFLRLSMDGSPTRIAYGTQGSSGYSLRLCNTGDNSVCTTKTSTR
Sequence of cellular kallikrein activity (P03952 391-638): as the sequence (P03952 391-638) above
Sequence of cellular kallikrein activity (P03952 20-390 partner): as the sequence (P03952 20-390 partner) above

Broadly, the pEC50 is −log10 of the EC50, conventionally taken in molar units. Lower therefore signals a high EC50. Regarding `COC(=O)c1cc(Cc2cc(C(=O)NCc3c(C)cc(N)nc3C)ccn2)cc2cc(Cl)cnc12` [Example 92, methyl 6-((4-(((6-amino-2,4-dimethylpyridin-3-yl)methyl)carbamoyl)pyridin-2-yl)methyl)-3-chloroquinoline-8-carboxylate], the pEC50 in assay [1] was more than 7.00.

Take `Cc1cc(N)nc(C)c1CNC(=O)c1ccnc(Cc2cc(C(=O)O)c3ncc(Cl)cc3c2)c1` [Example 93, 6-((4-(((6-amino-2,4-dimethylpyridin-3-yl)methyl)carbamoyl)pyridin-2-yl)methyl)-3-chloroquinoline-8-carboxylic acid]: the pEC50 in assay [1] is more than 7.00.

In assay [1], `Cc1nc(N)ccc1CNC(=O)c1ccnc(Cc2cc(CO)c3ncc(Cl)cc3c2)c1` [Example 97, N-((6-amino-2-methylpyridin-3-yl)methyl)-2-((3-chloro-8-(hydroxymethyl)quinolin-6-yl)methyl)isonicotinamide] had a pEC50 of more than 7.00.

The compound `Cc1cc(N)nc(C)c1CNC(=O)c1ccnc(Cc2ccc3c(cc(Cl)c[n+]3[O-])c2)c1` [Example 99, 6-((4-(((6-amino-2,4-dimethylpyridin-3-yl)methyl)carbamoyl)pyridin-2-yl)methyl)-3-chloroquinoline 1-oxide] gave a negative-log EC50 (pEC50) in assay [1] of more than 7.00.

In assay [1], `Cc1nc(N)ccc1CNC(=O)c1ccnc(Cc2cc(Cl)c3ncc(Cl)cc3c2)c1` [Example 101, N-((6-amino-2-methylpyridin-3-yl)methyl)-2-((3,8-dichloroquinolin-6-yl)methyl)isonicotinamide] had a negative logarithm of the EC50 (pEC50) of more than 7.00.

As to `Cc1cc(N)nc(C)c1CNC(=O)c1ccnc(Cc2ccc3ncc(Cl)cc3c2F)c1` [Example 102, N-((6-amino-2,4-dimethylpyridin-3-yl)methyl)-2-((3-chloro-5-fluoroquinolin-6-yl)methyl)isonicotinamide], in assay [1], the pEC50 is 6.00 to 7.00.

`Cc1cc(C(=O)NCc2c(C)cc(N)nc2C)cc(Cc2ccc3ncc(Cl)cc3c2)n1` [Example 104, N-((6-amino-2,4-dimethylpyridin-3-yl)methyl)-2-((3-chloroquinolin-6-yl)methyl)-6-methylisonicotinamide] showed a pEC50 in assay [1] of more than 7.00.

Broadly, the pIC50 is the negative decadic logarithm of the IC50, by convention in mol/L. `Cc1cc(N)nc(C)c1CNC(=O)c1ccnc(Cc2cc3cc(Cl)cnc3cn2)c1` [Example 148, N-((6-amino-2,4-dimethylpyridin-3-yl)methyl)-2-((3-chloro-1,7-naphthyridin-6-yl)methyl)isonicotinamide] had a pEC50 in assay [1] of more than 7.00. Further, the pIC50 in assay [2] was more than 7.00.

As for `Cc1nc(N)ccc1CNC(=O)c1ccnc(Cc2cc3cc(Cl)cnc3cn2)c1` [Example 149, N-((6-amino-2-methylpyridin-3-yl)methyl)-2-((3-chloro-1,7-naphthyridin-6-yl)methyl)isonicotinamide], the pEC50 in assay [1] is more than 7.00. In addition, in assay [2], the negative logarithm of the IC50 (pIC50) is more than 7.00.

Compound `Cc1cc(N)nc(C)c1CNC(=O)c1ccnc(Cc2cnc3[nH]c(C(F)(F)F)cc3c2)c1` [Example 152, N-((6-amino-2,4-dimethylpyridin-3-yl)methyl)-2-((2-(trifluoromethyl)-1H-pyrrolo[2,3-b]pyridin-5-yl)methyl)isonicotinamide] had a pEC50 in assay [1] of 6.00 to 7.00. Also, the pIC50 in assay [2] was more than 7.00.

`Cc1cc(N)nc(C)c1CNC(=O)c1ccnc(Cc2cc3cc(Cl)cn3cn2)c1` [Example 153, N-((6-amino-2,4-dimethylpyridin-3-yl)methyl)-2-((6-chloropyrrolo[1,2-c]pyrimidin-3-yl)methyl)isonicotinamide] gave a pEC50 in assay [1] of more than 7.00. Also, in assay [2], the pIC50 is more than 7.00.

The compound `Cc1ccn2cnc(CNC(=O)c3ccnc(Cc4ccc5ncc(Cl)cc5c4)c3)c2c1` [Example 156, 2-((3-chloroquinolin-6-yl)methyl)-N-((7-methylimidazo[1,5-a]pyridin-1-yl)methyl)isonicotinamide] gave a pEC50 in assay [1] of 6.00 to 7.00. In assay [2], the pIC50 is more than 7.00.

`Cc1cc(CN)nc(C)c1CNC(=O)c1ccnc(Cc2ccc3ncc(Cl)cc3c2)c1` [Example 171, N-((6-(aminomethyl)-2,4-dimethylpyridin-3-yl)methyl)-2-((3-chloroquinolin-6-yl)methyl)isonicotinamide]: the pEC50 in assay [1] is 6.00 to 7.00. The pIC50 in assay [2] is more than 7.00.

`Cc1cc(CN)nc(C)c1CNC(=O)c1ccnc(Cc2ccc3ncc(C(F)(F)F)cc3c2)c1` [Example 172, N-((6-(aminomethyl)-2,4-dimethylpyridin-3-yl)methyl)-2-((3-(trifluoromethyl)quinolin-6-yl)methyl)isonicotinamide] had a pEC50 in assay [1] of more than 7.00. Also, the pIC50 in assay [2] is more than 7.00.

In assay [1], `Cc1nc2c(c(C)c1CNC(=O)c1ccnc(Cc3ccc4ncc(C(F)(F)F)cc4c3)c1)CCN2` [Example 176, N-((4,6-dimethyl-2,3-dihydro-1H-pyrrolo[2,3-b]pyridin-5-yl)methyl)-2-((3-(trifluoromethyl)quinolin-6-yl)methyl)isonicotinamide] gave a pEC50 of 6.00 to 7.00. In addition, the pIC50 in assay [2] is more than 7.00.

Consider `Cc1c(CNC(=O)c2ccnc(Cc3ccc4ncc(Cl)cc4c3)c2)ccc2c(N)nccc12` [Example 177, N-((1-amino-5-methylisoquinolin-6-yl)methyl)-2-((3-chloroquinolin-6-yl)methyl)isonicotinamide], for which the pEC50 in assay [1] is more than 7.00. Also, in assay [2], the negative logarithm of the IC50 (pIC50) was more than 7.00.

In assay [1], `Nc1nccc2c(F)c(CNC(=O)c3ccnc(Cc4ccc5ncc(Cl)cc5c4)c3)ccc12` [Example 178, N-((1-amino-5-fluoroisoquinolin-6-yl)methyl)-2-((3-chloroquinolin-6-yl)methyl)isonicotinamide] gave a pEC50 of more than 7.00. Further, the pIC50 in assay [2] was more than 7.00.

With `Cc1cc(N)nc(C)c1CNC(=O)c1cc(Cc2ccc3ncc(Cl)cc3c2)nc(C(=O)O)c1` [Example 209, 4-((6-amino-2,4-dimethylpyridin-3-yl)methylcarbamoyl)-6-((3-chloroquinolin-6-yl)methyl)picolinic acid], the pEC50 in assay [1] was 6.00 to 7.00.

In the case of `Cc1cnc2c(C(C)(C)O)cc(Cc3cc(C(=O)NCc4cc5c(Cl)c[nH]c5cc4F)ccn3)cc2c1` [Example 314, N-((3-chloro-6-fluoro-1H-indol-5-yl)methyl)-2-((8-(2-hydroxypropan-2-yl)-3-methylquinolin-6-yl)methyl)isonicotinamide], in assay [2], the pIC50 was more than 7.00.

Take `Cc1cnc2c(C(C)(C)O)cc(Cc3cc(C(=O)NCc4ccc5[nH]cc(Cl)c5c4F)ccn3)cc2c1` [Example 315, N-((3-chloro-4-fluoro-1H-indol-5-yl)methyl)-2-((8-(2-hydroxypropan-2-yl)-3-methylquinolin-6-yl)methyl)isonicotinamide]: the pIC50 in assay [2] was more than 7.00.

In the case of `Cc1cnc2c(C(C)(C)O)cc(Cc3cc(C(=O)NCc4cnc5[nH]cc(Cl)c5c4)ccn3)cc2c1` [Example 316, N-((3-chloro-1H-pyrrolo[2,3-b]pyridin-5-yl)methyl)-2-((8-(2-hydroxypropan-2-yl)-3-methylquinolin-6-yl)methyl)isonicotinamide], the pIC50 in assay [2] is more than 7.00.

With `Cc1cnc2c(C(C)(C)O)cc(Cc3cc(C(=O)NCc4n[nH]c5ccc(Cl)cc45)ccn3)cc2c1` [Example 317, N-((5-chloro-1H-indazol-3-yl)methyl)-2-((8-(2-hydroxypropan-2-yl)-3-methylquinolin-6-yl)methyl)isonicotinamide], the pIC50 in assay [2] is more than 7.00.

With `Cc1cnc2c(C(C)(C)O)cc(Cc3cc(C(=O)NCc4c(C)cc(N)nc4C)ccn3)cc2c1` [Example 318, N-((6-amino-2,4-dimethylpyridin-3-yl)methyl)-2-((8-(2-hydroxypropan-2-yl)-3-methylquinolin-6-yl)methyl)isonicotinamide], in assay [2], the negative-log IC50 (pIC50) was more than 7.00.

Regarding `Cc1cnc2c(C(C)(C)O)cc(Cc3cc(C(=O)NCc4ccc5c(N)nccc5c4)ccn3)cc2c1` [Example 319], in assay [2], the pIC50 is more than 7.00.

`O=C(NCc1cc2c(Cl)c[nH]c2cc1F)c1ccnc(Cc2ccc3ncc(N4CCC4)cc3c2)c1` [Example 320, 2-((3-(azetidin-1-yl)quinolin-6-yl)methyl)-N-((3-chloro-6-fluoro-1H-indol-5-yl)methyl)isonicotinamide]: the pIC50 in assay [2] was more than 7.00.

Take “N-(6-amino-2,4-dimethyl-pyridin-3-ylmethyl)-2-(2-cyano-quinolin-6-ylmethyl)-isonicotinamide [Example 131]”: the pIC50 in assay [2] was more than 7.00.

For the origin of these results see patent publication US10023557B2 (LifeSci Pharmaceuticals, Inc., priority 2015, dated 2018).
